This note sets out measurements from patent US20250346605A1, “NEW DERIVATIVES FOR TREATING TRPM3 MEDIATED DISORDERS” (Katholieke Universiteit Leuven, priority 2022, published 2025).

What is called IC50 is the point on the concentration scale where inhibition reaches its midpoint.

Each structure is given as a SMILES string.

For the assay, the target named is T1, mouse TRPM3α2 (mTRPM3) ion channel (Mus musculus, UniProt J9SQF3).
T1 construct: expressed in transfected cells; host or cells: Flp-In HEK293
T1 sequence (J9SQF3 1-1709 isoform J9SQF3-12): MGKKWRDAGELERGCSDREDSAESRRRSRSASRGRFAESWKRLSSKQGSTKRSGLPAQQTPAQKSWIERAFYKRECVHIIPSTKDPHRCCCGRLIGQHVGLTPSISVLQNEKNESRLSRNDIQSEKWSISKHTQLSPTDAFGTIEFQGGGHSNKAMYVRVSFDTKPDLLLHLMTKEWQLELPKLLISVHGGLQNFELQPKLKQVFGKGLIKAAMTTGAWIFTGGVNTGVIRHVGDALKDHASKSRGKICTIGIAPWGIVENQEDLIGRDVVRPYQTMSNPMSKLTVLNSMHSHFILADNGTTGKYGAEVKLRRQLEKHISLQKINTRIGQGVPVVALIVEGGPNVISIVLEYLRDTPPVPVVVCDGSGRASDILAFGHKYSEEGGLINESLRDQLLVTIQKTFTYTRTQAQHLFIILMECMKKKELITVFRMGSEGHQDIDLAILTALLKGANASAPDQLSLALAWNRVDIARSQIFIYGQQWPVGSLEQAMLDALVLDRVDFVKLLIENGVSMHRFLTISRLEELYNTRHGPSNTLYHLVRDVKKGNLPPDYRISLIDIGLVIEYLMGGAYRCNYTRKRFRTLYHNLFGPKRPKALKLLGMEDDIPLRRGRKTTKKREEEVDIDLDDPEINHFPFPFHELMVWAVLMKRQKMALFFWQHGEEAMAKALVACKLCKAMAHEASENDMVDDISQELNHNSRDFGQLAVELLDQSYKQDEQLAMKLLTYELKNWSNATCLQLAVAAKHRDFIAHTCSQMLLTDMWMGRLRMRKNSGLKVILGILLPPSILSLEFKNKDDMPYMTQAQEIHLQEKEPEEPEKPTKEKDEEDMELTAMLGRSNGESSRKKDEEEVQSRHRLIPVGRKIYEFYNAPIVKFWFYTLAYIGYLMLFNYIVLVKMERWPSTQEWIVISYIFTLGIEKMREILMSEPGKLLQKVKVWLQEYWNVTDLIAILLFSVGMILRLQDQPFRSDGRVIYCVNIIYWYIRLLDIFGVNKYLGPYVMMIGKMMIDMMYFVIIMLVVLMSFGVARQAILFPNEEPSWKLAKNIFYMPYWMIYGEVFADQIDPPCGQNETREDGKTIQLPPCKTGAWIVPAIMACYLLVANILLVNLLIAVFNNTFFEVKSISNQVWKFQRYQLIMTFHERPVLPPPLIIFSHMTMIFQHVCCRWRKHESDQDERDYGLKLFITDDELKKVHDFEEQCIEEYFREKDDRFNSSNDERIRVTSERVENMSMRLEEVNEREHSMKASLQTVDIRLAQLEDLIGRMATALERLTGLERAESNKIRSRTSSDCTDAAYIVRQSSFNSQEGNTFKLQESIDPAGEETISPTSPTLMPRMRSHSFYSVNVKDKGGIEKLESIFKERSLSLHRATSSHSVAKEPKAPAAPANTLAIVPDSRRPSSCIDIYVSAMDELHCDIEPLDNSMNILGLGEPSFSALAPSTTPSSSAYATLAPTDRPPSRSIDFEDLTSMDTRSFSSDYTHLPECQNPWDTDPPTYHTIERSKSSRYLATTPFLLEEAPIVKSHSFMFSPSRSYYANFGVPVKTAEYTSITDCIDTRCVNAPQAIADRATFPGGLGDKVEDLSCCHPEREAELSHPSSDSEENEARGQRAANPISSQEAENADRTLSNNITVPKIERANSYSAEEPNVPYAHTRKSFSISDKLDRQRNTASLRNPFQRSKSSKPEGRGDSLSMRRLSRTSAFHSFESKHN
As to the kind of experiment: TRPM3 ion channel driven Ca2+ uptake (Fluo-4 AM assay), PS-stimulated overexpressing HEK293 cells. The note with it: flip-in HEK293 overexpressing TRPM3, stimulated with Pregnenolone sulfate (PS) 50 μM, activity ranges A, B, C. The assay is classed as cell-based. As to the method: In order to monitor the inhibition of the mouse TRPM3α2 (mTRPM3) ion channel by the compounds of the invention, a cellular system making use of an mTRPM3alpha2 or hTRPM3 overexpressing cell line (flip-in HEK293) was used. The TRPM3 channel was stimulated/opened with Pregnenolone sulfate (PS) (50 μM) which results in Ca^2+ influx.
For mTRPM3, the intracellular Ca^2+ was measured with a Calcium responsive dye, Fluor-4 AMV ester (Invitrogen). Cells were cultured until a confluence of 80-90%, washed with Versene (Invitrogen) and detached from the surface by a short incubation with 0.05% Trypsin (Invitrogen). The trypsination process was stopped by the addition of complete cell culture medium (DMEM, glutamax, 10% FCS, NEAA, Pen-Strep). Cells were collected and resuspended in Krebs buffer without Calcium at RT.
Prior the cell seeding (±2000 cells/well into a black, 384 well plate (Greiner)) the diluted compound was added in the assay plate, together with the PS dissolved in Krebs buffer containing Calcium. […] Directly after cell addition the plates were read on an Envision fluorescence reader (Perkin Elmer) by an Excitation of 485 nm and emission at 535 nm.
Channel inhibition was calculated compared to a non-PS stimulated control versus a condition stimulated with PS (50 μM) with vehicle. The ability of the compounds of the invention to inhibit this activity was determined as: Percentage inhibition=[1-((RFU determined for sample with test compound present−RFU determined for sample with positive control inhibitor) divided by (RFU determined in the presence of vehicle−RFU determined for sample with positive control inhibitor))]*100.
The activities of the Example compounds tested are depicted in the table below. The activity ranges A, B and C refer to IC50 values in the Fluo-4 AM assay as follows: “A”: IC50<1 μM; “B”: 1 μM≤IC50≤20 μM and “C”: IC50>20 μM

Compound `Cc1ncsc1COc1cc2c(C(=O)NC3(CO)CC3)c(C)oc2cn1` [Cpd 030, N-[1-(hydroxymethyl)cyclopropyl]-2-methyl-5-[(4-methyl-1,3-thiazol-5-yl)methoxy]furo[2,3-c]pyridine-3-carboxamide] registered an IC50 of over 20 µM. Turning to `Cc1ncsc1COc1cc2c(C(=O)N[C@H](C(N)=O)[C@@H](C)O)c(C)oc2cn1` [Cpd 004, (2S,3R)-3-hydroxy-2-({2-methyl-5-[(4-methyl-1,3-thiazol-5-yl)methoxy]furo[2,3-c]pyridin-3-yl}formamido)butanamide], the IC50 is under 1 µM. `Cc1oc2cnc(OCc3ccccc3F)cc2c1C(=O)NC1(CO)CC1` [Cpd 018, 5-[(2-fluorophenyl)methoxy]-N-[1-(hydroxymethyl)cyclopropyl]-2-methylfuro[2,3-c]pyridine-3-carboxamide]: the half-inhibitory concentration (IC50) lay within 1 to 20 µM. As to `Cc1ncsc1COc1cc2c(C(=O)NC(C)C(N)=O)c(C)oc2cn1` (single isomer, unassigned) [Cpd 005-En2, 2-({2-methyl-5-[(4-methyl-1,3-thiazol-5-yl)methoxy]furo[2,3-c]pyridin-3-yl}formamido)propanamide], the IC50 was over 20 µM. Next, `Cc1ncc(COc2cc3c(C(=O)N[C@H](C(N)=O)[C@@H](C)O)c(C)oc3cn2)s1` [Cpd 003, (2S,3R)-3-hydroxy-2-({2-methyl-5-[(2-methyl-1,3-thiazol-5-yl)methoxy]furo[2,3-c]pyridin-3-yl}formamido)butanamide]: 1 to 20 µM; `Cc1oc2cnc(OCc3ccccc3)cc2c1C(=O)NC(C)C(N)=O` (stereo not drawn) [Cpd 010-Enl, 2-{[5-(benzyloxy)-2-methylfuro[2,3-c]pyridin-3-yl]formamido}propanamide]: 1 to 20 µM. Next, `Cc1oc2cnc(OCc3ccccn3)cc2c1C(=O)NC1(CO)CCC1` [Cpd 029, N-[1-(hydroxymethyl)cyclobutyl]-2-methyl-5-[(pyridin-2-yl)methoxy]furo[2,3-c]pyridine-3-carboxamide]: 1 to 20 µM; `Cc1oc2cnc(OCc3ccccc3F)cc2c1C(=O)NC1CCN(CCO)C1=O` (single isomer, unassigned) [Cpd 017-En2, 5-[(2-fluorophenyl)methoxy]-N-[1-(2-hydroxyethyl)-2-oxopyrrolidin-3-yl]-2-methylfuro[2,3-c]pyridine-3-carboxamide]: 1 to 20 µM; `Cc1ncsc1COc1cc2c(C(=O)NC3CNCC3(F)F)c(C)oc2cn1` (single isomer, unassigned) [Cpd 021-En1, N-(4,4-difluoropyrrolidin-3-yl)-2-methyl-5-[(4-methyl-1,3-thiazol-5-yl)methoxy]furo[2,3-c]pyridine-3-carboxamide]: under 1 µM. In the case of `Cc1oc2cnc(OCc3ccccc3F)cc2c1C(=O)NC(C)C(N)=O` (single isomer, unassigned) [Cpd 009-En1, 2-({5-[(2-fluorophenyl)methoxy]-2-methylfuro[2,3-c]pyridin-3-yl}formamido)propanamide], the IC50 lay within 1 to 20 µM.

As to `Cc1oc2cnc(OCc3ccccc3F)cc2c1C(=O)NC(C)C(N)=O` (single isomer, unassigned) [Cpd 009-En2, 2-({5-[(2-fluorophenyl)methoxy]-2-methylfuro[2,3-c]pyridin-3-yl}formamido)propanamide], the half-inhibitory concentration (IC50) was 1 to 20 µM. Under `Cc1oc2cnc(OCc3ccccc3)cc2c1C(=O)NC1(CO)CCOCC1` [Cpd 016, 5-(benzyloxy)-N-[4-(hydroxymethyl)oxan-4-yl]-2-methylfuro[2,3-c]pyridine-3-carboxamide] stands over 20 µM; under `Cc1oc2cnc(OCc3cccnc3C(F)(F)F)cc2c1C(=O)N[C@H]1CCNCC1(F)F` [Cpd 026, N-[(4S)-3,3-difluoropiperidin-4-yl]-2-methyl-5-{[2-(trifluoromethyl)pyridin-3-yl]methoxy}furo[2,3-c]pyridine-3-carboxamide], 1 to 20 µM; under `Cc1oc2cnc(OCc3ccccn3)cc2c1C(=O)NC1(CO)COC1` [Cpd 034, N-[3-(hydroxymethyl)oxetan-3-yl]-2-methyl-5-[(pyridin-2-yl)methoxy]furo[2,3-c]pyridine-3-carboxamide], over 20 µM. Take `Cc1oc2cnc(OCc3ccccn3)cc2c1C(=O)NC1(CO)CC1` [Cpd 031, N-[1-(hydroxymethyl)cyclopropyl]-2-methyl-5-[(pyridin-2-yl)methoxy]furo[2,3-c]pyridine-3-carboxamide]: the IC50 is over 20 µM.
